# Values quoted from earlier work, collected in patent US20160300010A1, “METHOD AND SYSTEM FOR PREDICTING SELECTIVE CANCER DRUG TARGETS” (RAMOT AT TEL-AVIV UNIVERSITY LTD., priority 2011, published 2016).
# Test system: human cancer cells
# Conditions: previously shown
compound,measurement,value
NC(Cn1ccc(=O)c(O)c1)C(=O)O (stereo not shown) [Mimosine],effect on proliferation of human cancer cells,inhibit proliferation of human cancer cells
